{
  "source": "paper PMC8592419",
  "about": "(PLoS ONE, 2021)",
  "key": {"[1]": {"system": "Mab ATCC19977 strain", "type": "cell-based, Mycobacterium abscessus", "experimental": "(§1) Briefly, serial dilutions of the AMPs were prepared with potassium phosphate buffer (PPB) from the concentration range of 3.125 to 400 μg/ml and then 50 μl of each dilution were added to each 96-well plate. Colonies of the isolate were suspended and then further diluted in Mueller-Hinton broth to obtain a final concentration of 1×10^3 CFU/ml (optimized according to the available AMP stock concentration). Fifty microliters of this inoculum were added to each well of the plates. The plates were incubated for 3 days at 37°C. Plain media and bacterial suspensions without AMPs were used as negative and positive controls. The MIC values were read and recorded. All assays were performed in duplicate and two independent experiments."}, "[2]": {"system": "human peripheral blood mononuclear cells (PBMCs)", "assay": "PBMC toxicity, trypan blue exclusion assay", "type": "cell-based", "details": "1 h at 37°C, mean±SD of duplicates, two independent experiments", "experimental": "For the toxicity of the potential AMPs to human peripheral blood mononuclear cells (PBMCs), the trypan blue exclusion assay was used. Fresh human PBMCs were prepared from blood samples of healthy volunteers using the Ficoll density gradient technique. The cells were centrifuged at 1,800 rpm for 20 min at 20°C and washed three times with PBS and adjusted with RPMI-1640 medium into 6.25×10^5 cells/ml. Fifty microliters of PBMC suspension and 50 μl of AMP solutions (6.25–400 μg/ml) were added to the 96-well microtiter plates and incubated for 1 h at 37°C. Then, 20 μl of the samples were mixed with 20 μl of 0.4% (w/v) trypan blue solution (0.81% NaCl and 0.06% (w/v) dibasic potassium phosphate) in microtubes and incubated for 3 min at room temperature. The PBMC suspensions treated with PBS were used as negative controls. PBMCs were counted using a dual-chamber hemocytometer under a light microscope. Viable and non-viable cells were counted under a microscope and the percentage of viable cells was calculated using the following formula: % of viable cells = [1.00 –([…] / Number of total cells)] × 100. All assays were performed in duplicate with two independent experiments."}, "[3]": {"system": "clinical isolates of M. abscessus", "assay": "In vitro susceptibility of potential AMPs, 3 days, summary over isolates", "type": "cell-based, Mycobacterium abscessus", "details": "isolates MAB01 and MAB03", "experimental": "as §1\n(§2) For the in vitro antimicrobial susceptibility, the same protocol as described above was used. The culture plates were further incubated up to 3 days at 37°C. The MIC values were read and recorded."}, "[4]": {"system": "M. abscessus clinical isolate MAB15", "assay": "In vitro antimicrobial susceptibility of potential AMPs, broth microdilution, 3 days", "type": "cell-based, M. abscessus subsp. massiliense", "details": "3 days at 37°C", "experimental": "as §1, §2"}, "[5]": {"system": "M. abscessus clinical isolate MAB16", "assay": "In vitro antimicrobial susceptibility of potential AMPs, broth microdilution, 3 days", "type": "cell-based, M. abscessus subsp. massiliense", "details": "3 days at 37°C", "experimental": "as §1, §2"}, "[6]": {"system": "M. abscessus clinical isolate MAB12", "assay": "In vitro antimicrobial susceptibility of potential AMPs, broth microdilution, 3 days", "type": "cell-based, M. abscessus subsp. massiliense", "details": "3 days at 37°C", "experimental": "as §1, §2"}, "[7]": {"system": "M. abscessus clinical isolate MAB14", "assay": "In vitro antimicrobial susceptibility of potential AMPs, broth microdilution, 3 days", "type": "cell-based, M. abscessus subsp. massiliense", "details": "3 days at 37°C", "experimental": "as §1, §2"}, "[8]": {"system": "M. abscessus clinical isolate MAB13", "type": "cell-based, M. abscessus subsp. massiliense", "details": "3 days at 37°C", "experimental": "as §1, §2"}, "[9]": {"system": "human red blood cells (RBCs)", "assay": "Hemolytic toxicity test", "type": "cell-based", "details": "for Hemolytic activities (%hemolysis): human RBCs, 1 h at 37°C, mean±SD of duplicates, two independent experiments", "experimental": "For the hemolytic toxicity test, red blood cells (RBCs) from fresh blood samples of healthy volunteers were obtained by centrifugation at 1,000 rpm for 5 min. The cells were washed three times with sterile phosphate buffered saline (PBS) and adjusted into 1×10^8 cells/ml. AMPs were diluted with PPB in ranging from 6.25 to 400 μg/ml. Fifty microliters of the RBC suspensions and 50 μl of AMP solutions were added to 1.5 ml sterile microtubes, incubated for 1 h at 37°C and then centrifuged at 1,000 rpm for 5 min. The supernatants were transferred to new 96-well microtiter plates for measurement of the absorbance at 540 nm using a microplate reader. RBC suspensions treated with 2% (v/v) Triton X-100 and PBS solution were used as positive and negative controls. The percentages of hemolysis were calculated using the following formula: % of RBC lysis = 100 × [(Test—PBS) / (Positive control—PBS)]. All assays were performed in duplicate and two independent experiments."}, "[10]": {"system": "M. abscessus clinical isolate MAB02", "type": "cell-based, M. abscessus subsp. abscessus", "details": "3 days at 37°C", "experimental": "as §1, §2"}, "[11]": {"system": "M. abscessus clinical isolate MAB06", "type": "cell-based, M. abscessus subsp. abscessus", "details": "3 days at 37°C", "experimental": "as §1, §2"}, "[12]": {"system": "M. abscessus clinical isolate MAB01", "assay": "In vitro antimicrobial susceptibility of potential AMPs, broth microdilution, 3 days", "type": "cell-based, M. abscessus subsp. abscessus", "details": "3 days at 37°C", "experimental": "as §1, §2"}, "[13]": {"system": "M. abscessus clinical isolate MAB07", "assay": "In vitro antimicrobial susceptibility of potential AMPs, broth microdilution, 3 days", "type": "cell-based, M. abscessus subsp. abscessus", "details": "3 days at 37°C", "experimental": "as §1, §2"}, "[14]": {"system": "M. abscessus clinical isolate MAB09", "assay": "In vitro antimicrobial susceptibility of potential AMPs, broth microdilution, 3 days", "type": "cell-based, M. abscessus subsp. abscessus", "details": "3 days at 37°C", "experimental": "as §1, §2"}, "[15]": {"system": "M. abscessus clinical isolate MAB10", "assay": "In vitro antimicrobial susceptibility of potential AMPs, broth microdilution, 3 days", "type": "cell-based, M. abscessus subsp. abscessus", "details": "3 days at 37°C", "experimental": "as §1, §2"}, "[16]": {"system": "M. abscessus clinical isolate MAB08", "assay": "In vitro antimicrobial susceptibility of potential AMPs, broth microdilution, 3 days", "type": "cell-based, M. abscessus subsp. abscessus", "details": "3 days at 37°C", "experimental": "as §1, §2"}, "[17]": {"system": "M. abscessus clinical isolate MAB03", "assay": "In vitro antimicrobial susceptibility of potential AMPs, broth microdilution, 3 days", "type": "cell-based, M. abscessus subsp. abscessus", "details": "3 days at 37°C", "experimental": "as §1, §2"}, "[18]": {"system": "M. abscessus clinical isolate MAB04", "assay": "In vitro antimicrobial susceptibility of potential AMPs, broth microdilution, 3 days", "type": "cell-based, M. abscessus subsp. abscessus", "details": "3 days at 37°C", "experimental": "as §1, §2"}, "[19]": {"system": "M. abscessus clinical isolate MAB05", "assay": "In vitro antimicrobial susceptibility of potential AMPs, broth microdilution, 3 days", "type": "cell-based, M. abscessus subsp. abscessus", "details": "3 days at 37°C", "experimental": "as §1, §2"}, "[20]": {"system": "M. abscessus clinical isolate MAB11", "assay": "In vitro antimicrobial susceptibility of potential AMPs, broth microdilution, 3 days", "type": "cell-based, M. abscessus subsp. abscessus", "details": "3 days at 37°C", "experimental": "as §1, §2"}, "[21]": {"system": "sixteen clinical Mab isolates", "assay": "24-hour bactericidal activity assay, summary over isolates", "type": "cell-based, Mycobacterium abscessus", "details": "majority of the tested strains (10/16 isolates); equivalent of <50 μg/ml", "experimental": "as §1\nPotential AMPs from the screening assays were subjected to determine the 24-hour bactericidal activity assays (corresponding to the common time of administration) with sixteen clinical Mab isolates using the protocol as described above. To observe the early antimicrobial activities, the plates were incubated for 24 h at 37°C. The samples from each well were further diluted in 0.05% Tween 80 and inoculated on Mueller-Hinton agar. After incubation for 3 days at 37°C, the colony-forming units (CFUs) were counted and calculated for the percentage of killing using the following formula: % killing = 1 - (CFU sample/ CFU control) ×100."}},
  "note": "Where a SMILES comes first, the peptide text is derived from it.",
  "data": [
    {"smiles": "CC(C)C[C@H](NC(=O)[C@H](CCCCN)NC(=O)[C@H](CC(C)C)NC(=O)[C@H](CC(C)C)NC(=O)[C@H](CC(C)C)NC(=O)[C@H](CC(C)C)NC(=O)[C@H](CC(C)C)NC(=O)[C@H](CCCCN)NC(=O)[C@H](CC(C)C)NC(=O)[C@@H](N)CCCCN)C(=O)O", "note": "[KLK1] (H-KLKLLLLLKL-OH)", "values": [
      {"measurement": "MIC values", "setting": "[1]", "value": 400, "unit": "µg/mL"},
      {"measurement": "Viable cells of PBMCs (% viable cells)", "setting": "[2]; 6.25 µg/mL", "value": "102.52±5.04", "unit": "%"},
      {"measurement": "Viable cells of PBMCs (% viable cells)", "setting": "[2]; 12.5 µg/mL", "value": "100.00±2.95", "unit": "%"},
      {"measurement": "Viable cells of PBMCs (% viable cells)", "setting": "[2]; 25 µg/mL", "value": "92.70±4.41", "unit": "%"},
      {"measurement": "Viable cells of PBMCs (% viable cells)", "setting": "[2]; 50 µg/mL", "value": "94.34±2.80", "unit": "%"},
      {"measurement": "Viable cells of PBMCs (% viable cells)", "setting": "[2]; 100 µg/mL", "value": "91.68±8.42", "unit": "%"},
      {"measurement": "Viable cells of PBMCs (% viable cells)", "setting": "[2]; 200 µg/mL", "value": "65.81±4.51", "unit": "%"},
      {"measurement": "Viable cells of PBMCs (% viable cells)", "setting": "[2]; 400 µg/mL", "value": "44.62±7.22", "unit": "%"},
      {"measurement": "MIC values after 3 days", "setting": "[3]", "value": "20.93 to 41.85", "unit": "µM"},
      {"measurement": "Antimicrobial peptides against M. abscessus isolates, MIC value", "setting": "[4]", "value": ">400", "unit": "µg/mL"},
      {"measurement": "Antimicrobial peptides against M. abscessus isolates, MIC value", "setting": "[5]", "value": ">400", "unit": "µg/mL"},
      {"measurement": "Antimicrobial peptides against M. abscessus isolates, MIC value", "setting": "[6]", "value": ">400", "unit": "µg/mL"},
      {"measurement": "Antimicrobial peptides against M. abscessus isolates, MIC value", "setting": "[7]", "value": ">400", "unit": "µg/mL"},
      {"measurement": "Antimicrobial peptides against M. abscessus isolates, MIC value", "setting": "[8]", "value": ">400", "unit": "µg/mL"},
      {"measurement": "Hemolytic activities (%hemolysis)", "setting": "[9]; 6.25 µg/mL", "value": "0.7±0.50", "unit": "%"},
      {"measurement": "Hemolytic activities (%hemolysis)", "setting": "[9]; 12.5 µg/mL", "value": "4.93±2.49", "unit": "%"},
      {"measurement": "Hemolytic activities (%hemolysis)", "setting": "[9]; 25 µg/mL", "value": "8.27±1.74", "unit": "%"},
      {"measurement": "Hemolytic activities (%hemolysis)", "setting": "[9]; 50 µg/mL", "value": "12.15±0.25", "unit": "%"},
      {"measurement": "Hemolytic activities (%hemolysis)", "setting": "[9]; 100 µg/mL", "value": "15.85±1.49", "unit": "%"},
      {"measurement": "Hemolytic activities (%hemolysis)", "setting": "[9]; 200 µg/mL", "value": "18.13±0.25", "unit": "%"},
      {"measurement": "Hemolytic activities (%hemolysis)", "setting": "[9]; 400 µg/mL", "value": "22.18±1.99", "unit": "%"},
      {"measurement": "hemolysis at the MICs level", "setting": "[9]; at the MICs level, single figure of the abstract", "value": 10.21, "unit": "%"},
      {"measurement": "Antimicrobial peptides against M. abscessus isolates, MIC value", "setting": "[10]", "value": ">400", "unit": "µg/mL"},
      {"measurement": "Antimicrobial peptides against M. abscessus isolates, MIC value", "setting": "[11]", "value": ">400", "unit": "µg/mL"},
      {"measurement": "Antimicrobial peptides against M. abscessus isolates, MIC value", "setting": "[12]", "value": 25, "unit": "µg/mL"},
      {"measurement": "Antimicrobial peptides against M. abscessus isolates, MIC value", "setting": "[13]", "value": ">400", "unit": "µg/mL"},
      {"measurement": "Antimicrobial peptides against M. abscessus isolates, MIC value", "setting": "[14]", "value": ">400", "unit": "µg/mL"},
      {"measurement": "Antimicrobial peptides against M. abscessus isolates, MIC value", "setting": "[15]", "value": ">400", "unit": "µg/mL"},
      {"measurement": "Antimicrobial peptides against M. abscessus isolates, MIC value", "setting": "[16]", "value": ">400", "unit": "µg/mL"},
      {"measurement": "Antimicrobial peptides against M. abscessus isolates, MIC value", "setting": "[17]", "value": 50, "unit": "µg/mL"},
      {"measurement": "Antimicrobial peptides against M. abscessus isolates, MIC value", "setting": "[18]", "value": ">400", "unit": "µg/mL"},
      {"measurement": "Antimicrobial peptides against M. abscessus isolates, MIC value", "setting": "[19]", "value": ">400", "unit": "µg/mL"},
      {"measurement": "Antimicrobial peptides against M. abscessus isolates, MIC value", "setting": "[20]", "value": ">400", "unit": "µg/mL"},
      {"measurement": "MIC with ~99% killed within 24 h", "setting": "[21]", "value": "< 41.85", "unit": "µM"}
    ]}
  ]
}
